Measured values as given in patent US12187754B2, “LpxC inhibitors and uses thereof” (Blacksmith Medicines, Inc., priority 2021, dated 2025).

Legend:
E. coli = assay: MIC against gram-negative bacterial cell lines (E. coli); type: cell-based; conditions: Escherichia coli
K. pneumoniae = assay: MIC against gram-negative bacterial cell lines (K. pneumoniae); type: cell-based; conditions: Klebsiella pneumoniae
S. aureus = assay: Inhibition of gram-positive bacterial cell lines; type: cell-based
Thermal solubility = type: physicochemical; conditions: aqueous buffer, thermodynamic from solid; 100 mM potassium phosphate buffer pH 7.4, 24 h, 25° C.
Procedure: Solubility of the compounds was assessed in 100 mM potassium phosphate buffer at pH 7.4 after 24 hours at room temperature.
Accurately weighed K2HPO4 (2.79 g) and KH2PO4 (0.54 g) were dissolved in 90 mL of Milli-Q water and mixed well. Volume was made upto 200 mL with Milli-Q water and mixed well. The prepared phosphate buffer was stored at 2-8° C. and used within a month.
Approximately 30 mg of test compound was added to approximately 1 mL of the potassium phosphate buffer, pH 7.4. If the visual inspection indicated precipitation, no further compound is added. If the visual inspection indicated a clear solution, further increments of compound were added until the solution was no longer clear.
Test compounds and assay controls (caffeine) were further incubated for 24 h at 25° C. temperature on a thermomixer at a shaking speed of 1200 rpm. After incubation, the samples (200 μL) were transferred to a filtration plate to which a plate was attached at bottom for collecting the filtrate. The plate was centrifuged at 4000 rpm for 2 min and the filtrate was collected in the attached bottom plate. The filtrates were diluted using filtered buffer based on the initial amount of compound added. All samples were analysed by HPLC-UV method against 8 point calibration curve with concentrations ranging from 2.5 μg/mL to 1000 μg/mL.

E. coli UTI 89 = assay: Mouse urinary tract infection model, E. coli UTI 89; type: in vivo; conditions: for Bladder Terminal Burden / Kidney Terminal Burden / Urine Terminal Burden: mice, 96 h post infection
Procedure: (§1) Compound A and its prodrugs as disclosed herein were tested in an in vivo mouse model for Urinary Tract Infection. Briefly, mice were infected with E. coli UTI 89 to cause a UTI infection and were treated with compounds disclosed herein.
(§2) Five days prior to infection, C3H/HeNR female mice were preconditioned with drinking water containing 5% glucose. Mice were rendered unconscious using parenteral anaesthesia (ketamine/medetomidine) then 0.05 mL of a bacterial suspension of E. coli UTI 89 (1.2×10^9 CFU/mL (6.2×10^7 CFU/mouse) was administered transurethrally into the bladder to cause an ascending UTI infection.
IV or PO treatment was started 24 h post infection with 3, 10, 15 mg/kg/dose IV Compound A; 3, 10, 15.30 mg/kg/dose IV Compound 1; 3, and 10 mg/kg/dose IV Compound 2; and 30 mg/kg/dose oral of either Compound 1 or 2 administered every 12 hours for 3 days (six doses total). Ciprofloxacin was given as a control at 10 mg/kg/dose IV every 12 hours. Compound A was formulated in 10% DMSO, 5% Cremophor, 85% SFI; the remaining compounds used a sterile phosphate-buffered saline (PBS) formulation. Each group was comprised of five mice each.
(§3) Urine, bladder, and kidney were harvested at 24 h (pre-treatment group only) and 96 h post infection and quantitatively cultured.

K. pneumoniae BAA-1705 = assay: Mouse urinary tract infection model, K. pneumoniae BAA-1705; type: in vivo; conditions: for Bladder Terminal Burden / Kidney Terminal Burden / Urine Terminal Burden: mice, 96 hours
Procedure: as §1, §2
[…]; […]; […]; […] for 3 days (six doses total). Ciprofloxacin was given as a control at 10 mg/kg/dose IV every 12 hours. Compound A was formulated in 10% DMSO, 5% Cremophor, 85% SFI; the remaining compounds used a sterile phosphate-buffered saline (PBS) formulation. Each group was comprised of five mice each.
as §3
The experiment was repeated using K. pneumoniae BAA-1705 (MDR; MIC90 strain). Table 5 and FIG. 2 summarize the results, showing the average terminal burden of K. pneumoniae BAA-1705 in urine, bladder, and kidney at the conclusion of the study (96 hours).

[1] = Solubility under physiological conditions; type: physicochemical; conditions: for example at pH 7.4
[2] = 3 mg/kg/dose IV every 12 hours for 3 days
[3] = 10 mg/kg/dose IV every 12 hours for 3 days
[4] = 15 mg/kg/dose IV every 12 hours for 3 days
[5] = E. coli UTI 89, mice, IV administration

## N#CC1CN(C[C@@H](Cc2nc[nH]c(=O)c2O)c2ccc(C#Cc3ccc(CN4CCOCC4)cc3)cc2)C1 [Compound A, (S)-1-(3-(5-hydroxy-6-oxo-1,6-dihydropyrimidin-4-yl)-2-(4-((4-(morpholinomethyl)phenyl)ethynyl)phenyl)propyl)azetidine-3-carbonitrile]
E. coli
  MIC: < 1 µg/mL
K. pneumoniae
  MIC: < 1 µg/mL
S. aureus
  inhibition of gram-positive bacterial cell lines: does not inhibit
Thermal solubility
  solubility at 24 h: < 50 µg/mL
E. coli UTI 89; [2]
  Bladder Terminal Burden: 2.57 × 10^5 CFU/mL
  Kidney Terminal Burden: 3.72 × 10^3 CFU/mL
  Urine Terminal Burden: 3.03 × 10^5 CFU/mL
E. coli UTI 89; [3]
  Bladder Terminal Burden: 3.48 × 10^5 CFU/mL
  Kidney Terminal Burden: 4.44 × 10^2 CFU/mL
  Urine Terminal Burden: 6.26 × 10^4 CFU/mL
E. coli UTI 89; [4]
  Bladder Terminal Burden: 2.62 × 10^5 CFU/mL
  Kidney Terminal Burden: 1.21 × 10^2 CFU/mL
  Urine Terminal Burden: 3.78 × 10^3 CFU/mL
E. coli UTI 89; E. coli UTI 89, mice
  bacterial burden in urine relative to vehicle-treated controls: statistically significant reductions in bacterial burden in urine
E. coli UTI 89; [5]
  bacterial burden in bladder relative to vehicle-treated controls: reductions in bacterial burden in bladder
  bacterial burden in kidney relative to vehicle-treated control: statistically significant reductions in bacterial burden in kidney
K. pneumoniae BAA-1705; 10 mg/kg/dose IV
  Bladder Terminal Burden: 9.29 × 10^1 CFU/mL
  Kidney Terminal Burden: 3.47 × 10^2 CFU/mL
  Urine Terminal Burden: 2.72 × 10^0 CFU/mL
K. pneumoniae BAA-1705; 30 mg/kg/dose IV
  Bladder Terminal Burden: BLoD
  Kidney Terminal Burden: 7.48 × 10^1 CFU/mL
  Urine Terminal Burden: 7.41 × 10^3 CFU/mL
K. pneumoniae BAA-1705; 60 mg/kg/dose IV
  Bladder Terminal Burden: BLoD
  Kidney Terminal Burden: 3.17 × 10^0 CFU/mL
  Urine Terminal Burden: BLoD
K. pneumoniae BAA-1705; 90 mg/kg/dose PO
  Bladder Terminal Burden: BLoD
  Kidney Terminal Burden: 3.01 × 10^1 CFU/mL
  Urine Terminal Burden: 7.06 × 10^0 CFU/mL
K. pneumoniae BAA-1705; K. pneumoniae BAA-1705, mice
  bacterial burden in kidney relative to vehicle-treated controls and the ciprofloxacin control: statistically significant reductions in bacterial burden in kidney
K. pneumoniae BAA-1705; K. pneumoniae BAA-1705, mice, except for the 30 mg/kg IV Compound A experiment
  bacterial burden in urine relative to vehicle-treated controls and the ciprofloxacin control: statistically significant reductions in bacterial burden in urine
[1]
  solubility: < 1000 µg/mL
